From ChEMBL document CHEMBL4330126 (2019) come the findings set out here.

Calls of active or inactive are those of the source. The calls are words filed in the database; no cut-off is given here.

Experiment [1] relates to RAW264.7. Put plainly: Inhibition of LPS-induced morphological changes in mouse RAW264.7 cells at 0.5 x 10^-3 to 10^-3 M after 24 hrs by […] fluorescence microscopy. In kind it is functional, cell-based.
For experiment [2], the system named is RAW264.7. Put plainly: Inhibition of LPS-induced ROS generation in mouse RAW264.7 cells at 0.5 x 10^-3 to 10^-3 M after 24 hrs by DCFDA staining-based fluorescence microscopy. Type of experiment: functional, cell-based.
Experiment [3] deals with MAP kinase p38 (Mus musculus) (UniProt P47811+O08911+Q9WUI1+Q9Z1B7). Put plainly: Inhibition of LPS-induced p38 phosphorylation in mouse RAW264.7 cells at 0.5 x 10^-3 to 10^-3 M after 24 hrs by Western blot analysis. In kind it is cell-based. In general terms: Immunoblotting shows a protein as a band on a membrane.
The subject of experiment [4] is RAW264.7. Nature of the experiment: Inhibition of LPS-induced JNK-phosphorylation in mouse RAW264.7 cells at 0.5 x 10^-3 to 10^-3 M after 24 hrs by Western blot analysis. In kind it is cell-based.
For experiment [5], the system named is RAW264.7. Nature of the experiment: Anti-inflammatory activity in mouse RAW264.7 cells assessed as inhibition of LPS-induced IL-8 mRNA expression at 10^-3 M after 24 hrs by qRT-PCR analysis. In kind it is functional. To be noted: RAW264.7, 24 h.
For experiment [6], the system named is RAW264.7. Put plainly: Inhibition of LPS-stimulated NFkappaB/MAPK signaling activation in mouse RAW264.7 cells assessed as decrease in JunB protein level at 0.5 x 10^-3 to 10^-3 M after 24 hrs by Western blot analysis. Type of experiment: cell-based.
For experiment [7], the system named is RAW264.7. Nature of the experiment: Antiinflammatory activity in mouse RAW264.7 cells assessed as decrease in LPS-induced IL-1beta level at 10^-3 M by ELISA. Also noted: scale not given: the % may be the effect or the level left. In kind it is functional.
Experiment [8] concerns RAW264.7. Put plainly: Antiinflammatory activity in mouse RAW264.7 cells assessed as decrease in LPS-induced IL-6 level at 10^-3 M by ELISA. Type of experiment: functional. Also noted: scale not given: the % may be the effect or the level left. For orientation: An ELISA detects its analyte on a solid surface through an enzyme-linked reagent.
Experiment [9] deals with RAW264.7. Nature of the experiment: Inhibition of LPS-stimulated NFkappaB/MAPK signaling activation in mouse RAW264.7 cells assessed as increase in IkappaB protein level after 24 hrs by Western blot analysis. Type of experiment: cell-based.
For experiment [10], the system named is RAW264.7. Put plainly: Anti-inflammatory activity in mouse RAW264.7 cells assessed as inhibition of LPS-induced iNOS mRNA expression at 10^-3 M by qRT-PCR analysis. In kind it is functional, cell-based.
The test system of experiment [11] is RAW264.7. Put plainly: Antiinflammatory activity in mouse RAW264.7 cells assessed as decrease in LPS-induced TNF-alpha level at 10^-3 M by ELISA. Type of experiment: functional. Details: scale not given: the % may be the effect or the level left.
The subject of experiment [12] is RAW264.7. Nature of the experiment: Anti-inflammatory activity in mouse RAW264.7 cells assessed as inhibition of LPS-induced iNOS level at 10^-3 M by Western blot analysis. Type of experiment: functional, cell-based.
Experiment [13] deals with RAW264.7. Nature of the experiment: Inhibition of LPS-stimulated NFkappaB/MAPK signaling activation in mouse RAW264.7 cells assessed as decrease in phosphorylated IKK protein level level after 24 hrs by Western blot analysis. Type of experiment: cell-based.
The test system of experiment [14] is RAW264.7. Put plainly: Antiinflammatory activity against mouse RAW264.7 cells assessed as inhibition of LPS-induced nitric oxide production after 24 hrs by Griess assay. In kind it is functional, cell-based. On the technique in general: Nitrite, measured by Griess reagent, commonly stands in for NO production.
In experiment [15] the test system is RAW264.7. Nature of the experiment: Anti-inflammatory activity in mouse RAW264.7 cells assessed as inhibition of LPS-induced IL-6 mRNA expression at 10^-3 M after 24 hrs by qRT-PCR analysis. In kind it is functional. To be noted: RAW264.7, 24 h.
The subject of experiment [16] is RAW264.7. Nature of the experiment: Inhibition of LPS-stimulated NFkappaB/MAPK signaling activation in mouse RAW264.7 cells assessed as decrease in phosphorylated c-Jun protein level at 0.5 x 10^-3 to 10^-3 M after 24 hrs by Western blot analysis. In kind it is cell-based.
The subject of experiment [17] is RAW264.7. Put plainly: Inhibition of LPS-induced ROS generation in mouse RAW264.7 cells at 0.5 x 10^-3 to 10^-3 M after 24 hrs by DCFDA staining-based flow cytometric analysis. Type of experiment: functional, cell-based.
Experiment [18] deals with Mitogen-activated protein kinase 1 and 3 (ERK2 and ERK1) (Mus musculus) (UniProt P63085+Q63844). Nature of the experiment: Inhibition of LPS-induced ERK-1/2 phosphorylation in mouse RAW264.7 cells at 0.5 x 10^-3 to 10^-3 M after 24 hrs by Western blot analysis. In kind it is cell-based.
Chain of Mitogen-activated protein kinase 1 and 3 (ERK2 and ERK1) (Mus musculus) (P63085 whole entry, looked up): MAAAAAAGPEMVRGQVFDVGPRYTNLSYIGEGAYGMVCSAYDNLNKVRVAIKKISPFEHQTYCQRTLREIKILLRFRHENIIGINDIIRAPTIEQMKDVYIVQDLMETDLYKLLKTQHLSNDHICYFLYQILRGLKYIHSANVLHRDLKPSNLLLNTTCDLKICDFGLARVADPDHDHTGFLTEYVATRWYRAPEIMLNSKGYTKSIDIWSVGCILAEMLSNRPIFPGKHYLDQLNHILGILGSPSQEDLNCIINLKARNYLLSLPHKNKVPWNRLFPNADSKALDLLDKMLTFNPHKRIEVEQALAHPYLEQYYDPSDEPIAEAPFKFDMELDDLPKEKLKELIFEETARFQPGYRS
Chain of Mitogen-activated protein kinase 1 and 3 (ERK2 and ERK1) (Mus musculus) (Q63844 whole entry, looked up): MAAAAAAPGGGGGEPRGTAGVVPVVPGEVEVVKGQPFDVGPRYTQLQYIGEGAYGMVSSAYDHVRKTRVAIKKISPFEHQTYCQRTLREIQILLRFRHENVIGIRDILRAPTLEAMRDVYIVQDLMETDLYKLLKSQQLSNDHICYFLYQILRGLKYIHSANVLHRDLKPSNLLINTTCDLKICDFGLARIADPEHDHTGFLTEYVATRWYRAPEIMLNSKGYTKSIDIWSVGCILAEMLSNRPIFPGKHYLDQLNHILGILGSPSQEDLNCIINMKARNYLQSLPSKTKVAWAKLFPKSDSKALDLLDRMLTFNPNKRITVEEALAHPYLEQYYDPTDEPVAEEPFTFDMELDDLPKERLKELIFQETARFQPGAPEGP
Experiment [19] concerns RAW264.7. Put plainly: Antiinflammatory activity in mouse RAW264.7 cells assessed as decrease in LPS-induced IL-8 level at 10^-3 M by ELISA. In kind it is functional. Also noted: scale not given: the % may be the effect or the level left.
Experiment [20] relates to RAW264.7. Nature of the experiment: Anti-inflammatory activity in mouse RAW264.7 cells assessed as inhibition of LPS-induced TNF-alpha mRNA expression at 10^-3 M after 24 hrs by qRT-PCR analysis. In kind it is functional. To be noted: RAW264.7, 24 h.
Experiment [21] concerns RAW264.7. Nature of the experiment: Anti-inflammatory activity in mouse RAW264.7 cells assessed as inhibition of LPS-induced IL-1beta mRNA expression at 10^-3 M after 24 hrs by qRT-PCR analysis. Type of experiment: functional. The conditions noted are these: RAW264.7, 24 h.

As usually defined, the inhibition is the drop in the measured response relative to a control, in per cent.

For `CC1(C)[C@@H](O[C@H]2O[C@H](C(=O)[O-])[C@@H](O)[C@H](O)[C@H]2O[C@@H]2O[C@H](C(=O)[O-])[C@@H](O)[C@H](O)[C@H]2O)CC[C@]2(C)[C@H]3C(=O)C=C4[C@@H]5C[C@@](C)(C(=O)O)CC[C@]5(C)CC[C@@]4(C)[C@]3(C)CC[C@@H]12.O.O.O.O.[Mg+2]`, the inhibition entry (in the experiment on RAW264.7 [1]; in the experiment with RAW264.7 [2]; in [3]; with RAW264.7 [4]; in the experiment on RAW264.7 [6]; in the experiment with RAW264.7 [10]) was “Active” throughout. The inhibition result (in the experiment on RAW264.7 [12]; in the experiment on RAW264.7 [16]; with RAW264.7 [17]; in [18]) was “Active” each time. Further, the inhibition at 1000 µM is 88.4% with RAW264.7 [5], 46.2% with RAW264.7 [15], 48.6% in the experiment with RAW264.7 [20] and 61.7% in the experiment on RAW264.7 [21]. Moreover, the Activity in the experiment on RAW264.7 [7] amounted to 33.6%; in the experiment with RAW264.7 [8] it was 28.7%; in the experiment on RAW264.7 [11], 17.3%; in the experiment with RAW264.7 [19], 49.3%. The inhibition entry in the experiment on RAW264.7 [9], in the experiment on RAW264.7 [13] and in the experiment with RAW264.7 [14] was “Dose-dependent effect” each time.
